Reference: patent US20110189174A1, “COMPOSITIONS AND METHODS FOR TREATING, REDUCING, AMELIORATING, ALLEVIATING, OR INHIBITING PROGRESSION OF, PATHOGENIC OCULAR NEOVASCULARIZATION” (priority 2010, published 2011)

Assays:
[1] = intravitreal, wet AMD, cited from earlier work
[2] = tested on: human retinal endothelial cells (HREC); assay: Testing 7: VEGF-induced HREC proliferation (MTS assay), integrin antagonists and Lucentis alone and in combination; assay type: cell-based; conditions: Lucentis 1 ng/mL
Description: HREC were first cultured overnight in a 96-well plate coated with fibronectin. The next day medium containing different agents as shown in Tables 14 and 15 was pre-incubated for 1 hour before being added into appropriate wells. The cells were cultured at 37° C., 5% CO2, and 95% humidity for another 3 days. After that, cell proliferation was estimated by the MTS assay. In the first study we used VEGF 10 ng/mL (about EC80 in study PH08169), Lucentis® 1 ng/mL (about EC25 in study PH09038) and 5 doses of BOL-303055-X. Normal IgG (1 ng/ml) was also added to groups containing no Lucentis®. All groups contained the same amount of 0.1% DMSO. In the second study, all five compounds (BOL-303049-X, BOL-303050-X, BOL-303051-X, BOL-303054-X and BOL-303055-X) were tested at 1 nM with other conditions remaining the same.
A 96-well plate was coated with human fibronectin (10 μg/mL) for 5 hours at 37° C. HREC were washed with HBSS buffer once, tripsinized and re-suspended in 10% FBS CS-C medium at 18,000 cells/mL. Cells (200 μL) were added to the plate and cultured overnight at 37° C., 5% CO2, and 95% humidity. Next day, the cells were serum-starved for 2 hours.
For study I, VEGF at 10 ng/mL, Lucentis® at 1 ng/mL and BOL-303055-X at 0.1, 0.3, 1, 3 and 10 nM were prepared in 1% FBS CS medium as shown in Table 14. Normal IgG (1 ng/mL) were added to groups containing no Lucentis®. All medium solutions were incubated for 1 hour at 37° C. After carefully medium was aspirated, 200 μL of the medium containing different agents were then added into appropriate wells. The cells were cultured for another 3 days. For the study II as shown in the Table 15, five compounds were tested at 1 nM with other conditions remaining the same as study I.
At the end of incubation, the medium was carefully aspirated from cells and 120 μl of MTS working solution was added into all wells including blank wells (without cells). The plates were incubated at 37° C., 5% CO2, and 95% humidity for 1 hour and then read by a plate reader at 490 nm wavelength.
Median optical density (OD) was generated from different groups. Data were expressed as mean±SEM of the OD values. Statistical analysis was performed using three-way ANOVA after Box-Cox transformations, and p<0.05 was considered statistically significant. To evaluate whether the effects of the combinations were either synergistic or additive, net inhibitions were calculated by subtracting the basal levels in the presence of VEGF from the individual treatments (Lucentis® and Integrin blockers) and the combinations. […] Data analysis was performed utilizing the statistical analysis software JMP (SAS Institute, Cary, N.C.).

[3] = tested on: laser-induced CNV in monkeys; assay: Laser-induced choroidal neovascularization in monkeys, fluorescein angiography lesion grading; assay type: in vivo, cynomolgus monkeys (Macaca fascicularis); conditions: intravitreal, both eyes, days 1 and 15, 1.5 mg/eye (Lucentis 0.5 mg/eye)
Description: Study was performed in three phases. In phases Ia and Ib, the behavior of the suspension in aqueous (Ia) and oil (Ib) formulations, and multiple dosing regimens as well as any adverse effect due to multiple dosing at 3 mg/eye (Ia) or 1.5 (Ib) were investigated. In phase II test articles were administered twice during the study period on days 1 and 15. Eyes were examined with an indirect ophthalmoscope and fundus camera.
Adult male cynomolgus monkeys (Macaca fascicularis) age 2-7 years old were used to test the efficacy of BOL-303050-X, BOL-303054-X and BOL-303055-X. Lucentis® (ranibizumab) was used as historic control.
Both eyes of 46 monkeys were examined at baseline and then 42 animals were randomized into 5 groups. On Phase II Day 8 of Dosing, the animals were anesthetized with ketamine and dexmedetomidine and the macula of each eye of the animals in Groups 1 through […] underwent laser treatment by a retinal surgeon with a 532 nm diode green laser (OcuLight GL, IRIDEX Corp. Inc., Mountain View, Calif.) using a slit lamp delivery system and a Kaufman-Wallow (Ocular Instruments Inc, Bellevue, Wash.) plano fundus contact lens with Gonak (2.5%) as the coupling agent. Nine laser spot areas were symmetrically placed in the macula of each eye. The laser parameters included a 75 micron spot size and 0.1 second duration. The power setting used was assessed by the ability to produce a blister and a small hemorrhage. […] For areas not adjacent to the fovea, the initial power setting was 500 mW; if a second spot was placed, the power was set to 650 mW. For the area adjacent to the fovea the power settings were 400 mW (initial treatment) and 550 mW (second treatment). At the discretion of the retinal surgeon, power settings were adjusted based on observations at the time of laser. Power setting used for each spot was documented as well as number of burns per spot and whether hemorrhage occurred.
(§1) Once the phase Ib study was completed, and it was established that the drug suspension in oil would not interfere with either laser administration, evaluation of CNV or cause adverse effects, phase II was initiated. On days 1, and 15 both eyes of monkeys received 50 μL of Lucentis (0.5 mg/eye), vehicle (0 mg/eye), BOL-303050-X (1.5 mg/eye), BOL-303054-X (1.5 mg/eye) or BOL-303055-X (1.5 mg/eye) (Table 2). Intravitreous injection was performed for each by eye aiming towards mid-vitreous body. Dosing in the right eye was alternated for successive doses (as applicable) at approximately the 11 o'clock and 10 o'clock positions. Dosing in the left eye was alternated for successive doses (as applicable) from approximately the 1 o'clock and 2 o'clock positions.
Animals were anesthetized with ketamine and dexmedetomidine. A topical anesthetic (0.5% proparacaine) was instilled in each eye before dose administration. A wire speculum was used to retract the eyelids. The eyes were cleaned with a 2.5% povidone iodine solution and then rinsed with sterile saline. Each animal was dosed using 1 cc tuberculin syringes and 30 gauge needles.
FA was performed at baseline, on days 22, 29 and 37 (approximately 14, 21 and 28 days post-laser). Digital ocular photographs were taken in conjunction with FA. The FA procedure is well known by people skilled in the art of ophthalmology.
Evaluation of FA was done according to the following grading system for evidence of excessive permeability (fluorescein leakage) or any other abnormalities.
Grade IV lesions are considered to be clinically significant as these most closely resemble the active forms of classical CNV seen in various human retinal disorders, including age-related macular degeneration. Comparison of the incidence of Grade IV lesions between treatment groups was evaluated.
Grade IV lesions were analyzed using either Fisher's exact probability test (2-Tail) or Chi square test (χ2). […]

[4] = Clinical ophthalmic examination in monkeys (vitreal cell scores, anterior chamber inflammation); assay type: in vivo, cynomolgus monkeys (Macaca fascicularis); conditions: cynomolgus monkey, in vivo
Description: as §1
Animals were examined at baseline, on days 1, 3, 7, 15, and 31 of Dosing Phase II and on the day of scheduled sacrifice (day 38). On days of dose administration the ophthalmic examination was done prior to dosing.

ranibizumab [Lucentis, reference compound]
Patients who maintained visual acuity ([1]; at 1 year): 95% | Patients with improvement in vision of at least 3 lines [1]: 40% | Reduction of VEGF-induced HREC proliferation ([2]; VEGF 10 ng/mL): 15-20% | HREC proliferation without VEGF ([2]; basal and Lucentis-treatment conditions, BOL-303055-X 0.1-10 nM, other compounds 1 nM): did not alter HREC proliferation | Incidence of CNV lesions, Lesion Grade I (% Total) ([3]; Day 22): 97:126 (76.98) % | Incidence of CNV lesions, Lesion Grade II (% Total) ([3]; Day 22): 20:126 (15.87) % | Incidence of CNV lesions, Lesion Grade III (% Total) ([3]; Day 22): 9:126 (7.14) % | Incidence of CNV lesions, Lesion Grade IV (% Total) ([3]; Day 22): 0:126 (0) % | Incidence of CNV lesions, Lesion Grade I (% Total) ([3]; Day 29): 96:126 (76.19) % | Incidence of CNV lesions, Lesion Grade II (% Total) ([3]; Day 29): 22:126 (17.46) % | Incidence of CNV lesions, Lesion Grade III (% Total) ([3]; Day 29): 8:126 (6.35) % | Incidence of CNV lesions, Lesion Grade IV (% Total) ([3]; Day 29): 0:126 (0) % | Incidence of CNV lesions, Lesion Grade I (% Total) ([3]; Day 37): 118:126 (93.65) % | Incidence of CNV lesions, Lesion Grade II (% Total) ([3]; Day 37): 8:126 (6.35) % | Incidence of CNV lesions, Lesion Grade III (% Total) ([3]; Day 37): 3:126 (1.85) % | Incidence of CNV lesions, Lesion Grade IV (% Total) ([3]; Day 37): 0:126 (0) % | Vitreal cell score: number of eyes with grade 4 [4]: 0
